The record followed here is publication PMC3466204 (PLoS ONE, 2012).

One test deals with B. cereus DPC 6089. Description: Broth MIC, Gram positive. The format is cell-based, Bacillus cereus. To be noted: broth microtitre, BSA pre-treated plates, 10^5 cfu ml^−1, 2-fold dilutions from 10 µM, 16 h 37°C, purified peptide, mean of triplicate assays. As to the method: (§1) Minimum inhibitory concentration determinations for Gram positive organisms were carried out in triplicate in microtitre plates (Sarstedt). 96 well microtitre plates were pre-treated with bovine serum albumin (BSA) prior to addition of the peptides. Briefly, to each well of the microtitre plate 200 µL of phosphate buffered saline (PBS) containing 1% (w/v) bovine serum albumin (PBS/BSA) was added and incubated at 37°C for 30 min. The wells were washed with 200 µL PBS and allowed to dry. Target strains were grown overnight in the appropriate conditions and medium, subcultured into fresh broth and allowed to grow to an OD600 of ∼0.5, diluted to a final concentration of 10^5 cfu ml^−1 in a volume of 0.2 ml. Wild type nisin and nisin mutant peptides were adjusted to a 10 µM (S. mitis, B. cereus), 7.5 µM (L. monocytogenes), 5 µM (hVISA) 2.5 µM (MRSA, E. durans), or 500 nM (L. lactis strains) starting concentration and 2-fold serial dilutions of each peptide were added to the target strain.

For another test, the system named is B. cereus DPC 6088. Description: Broth MIC, Gram positive. The format is cell-based, Bacillus cereus. The settings on record: broth microtitre, BSA pre-treated plates, 10^5 cfu ml^−1, 2-fold dilutions from 10 µM, 16 h 37°C, purified peptide, mean of triplicate assays. As for the experimental part: as §1
The subject of test [1] is C. sakazakii DPC 6440. Put plainly: Broth MIC, Gram negative. The format is cell-based, Cronobacter sakazakii. To be noted: cells washed in 10 mM SPB pH 7.4, 2×10^5 CFU/mL, 2 h RT with peptide, then double strength LB, RT overnight, mean of triplicate assays. As to the method: (§2) Minimum inhibitory concentration determinations for Gram negative strains were carried out in triplicate in 96 well microtitre plates. Briefly, bacteria (E. coli, C. sakazakii and Salmonella) grown to mid-logarithmic phase were harvested by centrifugation, washed with 10 mM SPB at pH 7.4, and diluted to 2×10^5 colony-forming units (CFU)/mL in SPB. Nisin and nisin derivative peptides were resuspended in sterile HPLC water and 50 µL aliquots were added to wells containing 50 µL of 2×10^5 CFU of bacteria. Plates were incubated at RT for two hours with agitation. Double strength Luria–Bertani (LB) broth (100 µL) was added and the plates were incubated at RT overnight, the MIC was taken as the lowest concentration at which growth was inhibited.

The subject of a further test is L. lactis MG1363. Description: Broth MIC, Gram positive. The format is cell-based. To be noted: broth microtitre, BSA pre-treated plates, 10^5 cfu ml^−1, 2-fold dilutions from 500 nM, 16 h, purified peptide, mean of triplicate assays. As to the method:
as §1

The subject of test [2] is ST 528 (Methicillin resistant S. aureus). Description: Broth MIC, Gram positive. The format is cell-based. The settings on record: broth microtitre, BSA pre-treated plates, 10^5 cfu ml^−1, 2-fold dilutions from 2.5 µM, 16 h 37°C, purified peptide, mean of triplicate assays. As to the method: as §1
In another test the test system is S. aureus RF122. Put plainly: Broth MIC, Gram positive. The format is cell-based. The settings on record: broth microtitre, BSA pre-treated plates, 10^5 cfu ml^−1, 2-fold dilutions, 16 h 37°C, purified peptide, mean of triplicate assays. As for the experimental part: as §1
The subject of test [3] is hVISA 32679 (heterogenous Vancomycin-intermediate S. aureus). Description: Broth MIC, Gram positive. The format is cell-based. To be noted: broth microtitre, BSA pre-treated plates, 10^5 cfu ml^−1, 2-fold dilutions from 5 µM, 16 h 37°C, purified peptide, mean of triplicate assays. As to the method:
as §1

Test [4] deals with ST 530 (Methicillin resistant S. aureus). Put plainly: Broth MIC, Gram positive. The format is cell-based. To be noted: broth microtitre, BSA pre-treated plates, 10^5 cfu ml^−1, 2-fold dilutions from 2.5 µM, 16 h 37°C, purified peptide, mean of triplicate assays. As to the method:
as §1

In another test the test system is L. lactis HP. Put plainly: Broth MIC, Gram positive. The format is cell-based. To be noted: broth microtitre, BSA pre-treated plates, 10^5 cfu ml^−1, 2-fold dilutions from 500 nM, 16 h, purified peptide, mean of triplicate assays. As for the experimental part: as §1
For a further test, the system named is L. monocytogenes LO28. Put plainly: Broth MIC, Gram positive. The format is cell-based. The settings on record: broth microtitre, BSA pre-treated plates, 10^5 cfu ml^−1, 2-fold dilutions from 7.5 µM, 16 h 37°C, purified peptide, mean of triplicate assays. As for the experimental part:
as §1

The test system of the next test is L. monocytogenes 10403S. Put plainly: Broth MIC, Gram positive. The format is cell-based. To be noted: broth microtitre, BSA pre-treated plates, 10^5 cfu ml^−1, 2-fold dilutions from 7.5 µM, 16 h 37°C, purified peptide, mean of triplicate assays. As to the method: as §1
In another test the test system is S. typhimurium UK-1. Put plainly: Kill curve analysis. The settings on record: 33 mg/L purified peptide, 2×10^5 cfu ml^−1, 37°C for 1 hour. The format is cell-based, Salmonella enterica serovar Typhimurium. As for the experimental part:
(§3) Using purified peptide in each case, 10 mM sodium phosphate buffer washed C. sakazakii, E. coli and Salmonella strains were diluted to a final concentration of 2×10^5 cfu ml^−1 and were exposed to nisin A, S29G and S29A at a concentration of 33 mg/L. Following incubation at 37°C for 1 hour, bacterial growth was monitored through plate counts.

The subject of test [5] is C. sakazakii DPC 6440. Put plainly: Kill curve analysis. To be noted: 33 mg/L purified peptide, 2×10^5 cfu ml^−1, 37°C for 1 hour. The format is cell-based, Cronobacter sakazakii. As for the experimental part:
as §3

In another test the test system is E. coli. Description: Kill curve analysis. The format is cell-based. To be noted: 33 mg/L purified peptide, 2×10^5 cfu ml^−1, 37°C for 1 hour. As to the method: as §3
The test system of the next test is E. durans 5133. Description: Broth MIC, Gram positive. The format is cell-based, Enterococcus durans. To be noted: broth microtitre, BSA pre-treated plates, 10^5 cfu ml^−1, 2-fold dilutions from 2.5 µM, 16 h 37°C, purified peptide, mean of triplicate assays. As to the method:
as §1

The test system of test [6] is Salmonella enterica serovar Typhimurium UK1. Description: Broth MIC, Gram negative. The format is cell-based. To be noted: cells washed in 10 mM SPB pH 7.4, 2×10^5 CFU/mL, 2 h RT with peptide, then double strength LB, RT overnight, mean of triplicate assays. As for the experimental part:
as §2

For another test, the system named is E. coli 0157-H7. Put plainly: Broth MIC, Gram negative. To be noted: cells washed in 10 mM SPB pH 7.4, 2×10^5 CFU/mL, 2 h RT with peptide, then double strength LB, RT overnight, mean of triplicate assays. The format is cell-based. As to the method:
as §2

“And” between values parts separate entries of the source, which are not always exact repeats. Equal entries are not always repeated. Ends that are not written are not given here.

Broadly, the MIC is the least concentration at which growth counts as inhibited. For the substance “S29G: bioengineered nisin A derivative with a serine to glycine change at position 29 (ITSISLCTPGCKTGALMGCNMKTATCHCGIHVSK; thioether (positions not given here); not fully specified (residues 2, 5, 33, bridges); UniProt P13068 24-57, looked up, variant S29G)”, the MIC in the test with B. cereus DPC 6089 was 4.19 mg/L and 1.25 µM; with B. cereus DPC 6088, 4.19 mg/L and 1.25 µM; in the test on C. sakazakii DPC 6440 [1], 6.28 mg/L and 1.875 µM; in the test on L. lactis MG1363, 0.4 mg/L and 0.125 µM; in [2], 0.26 mg/L and 0.078 µM; with S. aureus RF122, 0.52 mg/L and 0.156 µM. Also, the MIC was 2 mg/L and 0.625 µM in test [3]; 0.26 mg/L and 0.078 µM in [4]; 0.1 mg/L and 0.031 µM with L. lactis HP; 6.28 mg/L and 1.875 µM in the test with L. monocytogenes LO28; 6.28 mg/L and 1.875 µM with L. monocytogenes 10403S; 0.26 mg/L and 0.078 µM in the test with E. durans 5133. For the same substance, the minimal inhibitory concentration (MIC) in test [6] was 50.28 mg/L and 15 µM; against E. coli 0157-H7, 25.14 mg/L and 7.5 µM. For the same substance, the “Killing compared with nisin A (plate counts)” value with S. typhimurium UK-1, in the test with C. sakazakii DPC 6440 [5] and in the test with E. coli was “greater activity than wildtype nisin A” throughout.
